Values quoted from earlier work in US20140170287A1, “METHODS FOR PREPARING AND COMPOSITIONS COMPRISING PLANT SEED-BASED OMEGA-3 FATTY ACIDS” (Living Healthy World LLC, priority 2012, published 2014).

Test system: C-reactive protein (CRP)
Conditions: consumption of ALA in flaxseeds; CRP as marker of the inflammatory status in the cardiovascular system

## CC/C=C\C/C=C\C/C=C\CCCCCCCC(=O)O [ALA, alpha-linolenic acid]
  decrease of blood levels of C-reactive protein (CRP): 10-15%
